# Measurements: US20240018150A1
# How the values were obtained:
# [1] = tested on: Ba/F3-BCR-BTK-C481S cells; assay: Cell assay, in-vitro inhibition of Ba/F3-BCR-BTK-C481S cells (CellTiter-Glo); format: cell-based; conditions: 2000 cells/well, 72 hrs, read-out: Ba/F3-BCR-BTK-C481S (IC50, in-vitro inhibitory test on cells)
# Procedure: (§1) Plating: The cells were suspended in serum-free medium and counted with automatic cell counter. According to the seeding density, the cell suspension was diluted to the required density. 95 μL cell (2000 cells/well) was added to each well, and incubated at 5% CO2 and 37° C.
# (§2) Preparation of compound solution: The compound was prepared into a diluted solution of 1000× final concentration with dimethyl sulfoxide. The test concentrations of the compound were 10000, 3333.33, 1111.11, 370.37, 123.46, 41.15, 13.72, 4.57, 1.52, and 0.51 nM. The compound was diluted with the culture medium to prepare a compound solution of 20× final concentration. 5 uL of the compound solution was added to each well, and the same volume of dimethyl sulfoxide was added to the control well. The cells were incubated at 37° C. and 5% CO2 for 72 hrs.
# (§3) Detection: The cell plate equilibrated to room temperature, 40 μl of CellTiter-Glo® reagent was added to each well, shaken for 2 min, allowed to stand for 10 min, and detected with SpectraMax Paradigm.
# (§4) Data Analysis • (1) The IC50 value was calculated using GraphPad Prism 5. • (2) % Inh=(Max signal−Compound signal)/(Max signal−Min signal)×100. • (3) Max signal was a value of the positive control well in which only DMSO of the same volume with the compound solution was present. • (4) Min signal was a value of the negative control well in which only the culture medium was present.
# [2] = tested on: TMD8 cells; assay: Cell assay, in-vitro inhibition of TMD8 cells (CellTiter-Glo); format: cell-based; conditions: Homo sapiens, 2000 cells/well, 72 hrs, read-out: TMD8 (IC50, in-vitro inhibitory test on cells)
# Procedure: as §1, §2, §3, §4
# [3] = molecular target: BTK kinase (Homo sapiens, UniProt Q06187); assay: Inhibitory activity test on BTK kinase (electrophoretic mobility shift assay); format: biochemical; conditions: Caliper EZ ReaderII, enzyme and compound 10 min at room temperature, read-out: BTK (IC50, in-vitro inhibitory test on kinase)
# Chain of BTK kinase (Q06187 whole entry): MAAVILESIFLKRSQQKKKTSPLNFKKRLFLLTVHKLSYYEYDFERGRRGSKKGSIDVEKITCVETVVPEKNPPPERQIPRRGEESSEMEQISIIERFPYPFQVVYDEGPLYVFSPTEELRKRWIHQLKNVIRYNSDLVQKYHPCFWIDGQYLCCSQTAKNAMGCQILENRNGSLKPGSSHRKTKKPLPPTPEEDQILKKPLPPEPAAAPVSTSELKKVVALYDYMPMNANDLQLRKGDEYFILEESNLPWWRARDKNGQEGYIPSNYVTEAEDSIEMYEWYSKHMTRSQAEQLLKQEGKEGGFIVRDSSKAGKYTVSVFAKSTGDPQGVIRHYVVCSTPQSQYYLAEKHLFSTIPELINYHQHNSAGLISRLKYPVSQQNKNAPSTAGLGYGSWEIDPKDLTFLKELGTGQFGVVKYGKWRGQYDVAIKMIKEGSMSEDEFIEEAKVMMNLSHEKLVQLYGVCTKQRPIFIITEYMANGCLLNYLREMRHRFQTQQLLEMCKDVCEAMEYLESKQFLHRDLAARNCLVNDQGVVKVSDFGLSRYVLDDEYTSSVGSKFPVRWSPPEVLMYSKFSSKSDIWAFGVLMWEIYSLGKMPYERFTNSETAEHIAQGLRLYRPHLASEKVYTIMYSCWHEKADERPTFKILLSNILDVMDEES
SMILES,IC50 [1] [nM],IC50 [2] [nM],IC50 [3] [nM]
"O=C(c1ccc(Oc2ccccc2)cc1Cl)c1c[nH]c2ncnc(N[C@@H]3CC[C@@H](CO)OC3)c12 [ARQ531, reference compound]",447,111,
"O=C(c1ccc(Oc2ccccc2)cc1Cl)c1c[nH]c2nccc(N[C@H]3CC[C@H](C(=O)O)CC3)c12 [Compound I-5, (1r, 4r)-4-((3-(2-chloro-4-phenoxybenzoyl)-1H-pyrrolo[2,3-b]pyridin-4-yl)amino)cyclohexane-1-carboxylic acid]",,,9
"O=C(c1ccc(Oc2ccccc2)cc1Cl)c1c[nH]c2nccc(N[C@H]3CC[C@@H](C(=O)O)CC3)c12 [Compound I-6, (1s, 4s)-4-((3-(2-chloro-4-phenoxybenzoyl)-1H-pyrrolo[2,3-b]pyridin-4-yl)amino)cyclohexane-1-carboxylic acid]",,,2.7
"O=C(c1ccc(Oc2ccccc2)cc1)c1c[nH]c2nccc(N[C@H]3CC[C@@H](C(=O)O)CC3)c12 [Compound I-8, (1s, 4s)-4-((3-(4-phenoxybenzoyl)-1H-pyrrolo[2,3-b]pyridin-4-yl)amino)cyclohexane-1-carboxylic acid]",,,7.1
"O=C(c1ccc(Oc2ccccc2)cc1Cl)c1c[nH]c2nccc(N[C@H]3C[C@@H](C(=O)O)C3)c12 [Compound I-11, (1s, 3s)-3-((3-(2-chloro-4-phenoxybenzoyl)-1H-pyrrolo[2,3-b]pyridin-4-yl)amino)cyclobutane-1-carboxylic acid]",,,6.2
"O=C(c1ccc(Oc2ccccc2)cc1Cl)c1c[nH]c2nccc(NC3CCNCC3)c12 [Compound I-22, (2-chloro-4-phenoxyphenyl)(4-(piperidin-4-ylamino)-1H-pyrrolo[2,3-b]pyridin-3-yl)methanone]",,,9.5
"O=C(c1ccc(Oc2ccccc2)cc1Cl)c1c[nH]c2nccc(N[C@@H]3CCCNC3)c12 [Compound I-23, (R)-(2-chloro-4-phenoxyphenyl)(4-(piperidin-3-ylamino)-1H-pyrrolo[2,3-b]pyridin-3-yl)methanone]",,,48
"O=C(c1ccc(Oc2ccccc2)cc1Cl)c1c[nH]c2nccc(N[C@H]3CC[C@H](O)CC3)c12 [Compound I-24, (2-chloro-4-phenoxyphenyl)(4-(((1r, 4r)-4-hydroxycyclohexyl)amino)-1H-pyrrolo[2,3-b]pyridin-3-yl)methanone]",,,52
"O=C(c1ccc(Oc2ccccc2)cc1Cl)c1c[nH]c2nccc(NCCOCCO)c12 [Compound I-28, (2-chloro-4-phenoxyphenyl)(4-((2-(2-hydroxyethoxy)ethyl)amino)-1H-pyrrolo[2,3-b]pyridin-3-yl)methanone]",,,110
"O=C(c1ccc(Oc2ccccc2)cc1Cl)c1c[nH]c2nccc(N[C@H]3CC[C@H](CO)CC3)c12 [Compound I-30, (2-chloro-4-phenoxyphenyl)(4-(((1r, 4r)-4-(hydroxymethyl)cyclohexyl)amino)-1H-pyrrolo[2,3-b]pyridin-3-yl)methanone]",,,95
"O=C(c1ccc(Oc2ccccc2)cc1Cl)c1c[nH]c2nccc(N[C@H]3CC[C@@H](CO)CC3)c12 [Compound I-31, (2-chloro-4-phenoxyphenyl)(4-(((1s, 4s)-4-(hydroxymethyl)cyclohexyl)amino)-1H-pyrrolo[2,3-b]pyridin-3-yl)methanone]",,,28
"O=C(c1ccc(Oc2ccccc2)cc1Cl)c1c[nH]c2nccc(N[C@@H]3CC[C@@H](CO)OC3)c12 [Compound I-32, (2-chloro-4-phenoxyphenyl)(4-(((3R, 6S)-6-(hydroxymethyl)tetrahydro-2H-pyran-3-yl)amino)-1H-pyrrolo[2,3-b]pyridin-3-yl)methanone]",,,11
"O=C(c1ccc(Oc2ccccc2)cc1)c1c[nH]c2nccc(N[C@H]3CC[C@@H](CO)CC3)c12 [Compound I-33, (4-(((1s, 4s)-4-(hydroxymethyl)cyclohexyl)amino)-1H-pyrrolo[2,3-b]pyridin-3-yl)(4-phenoxyphenyl)methanone]",,,80
"CNC(=O)[C@H]1CC[C@H](Nc2ccnc3[nH]cc(C(=O)c4ccc(Oc5ccccc5)cc4Cl)c23)CC1 [Compound I-35, (1r, 4r)-4-((3-(2-chloro-4-phenoxybenzoyl)-1H-pyrrolo[2,3-b]pyridin-4-yl)amino)-N-methylcyclohexane-1-carboxamide]",,,22
"NS(=O)(=O)N1CCC(Nc2ccnc3[nH]cc(C(=O)c4ccc(Oc5ccccc5)cc4Cl)c23)CC1 [Compound I-37, 4-((3-(2-chloro-4-phenoxybenzoyl)-1H-pyrrolo[2,3-b]pyridin-4-yl)amino)piperidin-1-sulfonamide]",,,141
"CS(=O)(=O)N1CCC(Nc2ccnc3[nH]cc(C(=O)c4ccc(Oc5ccccc5)cc4Cl)c23)CC1 [Compound I-38, (2-chloro-4-phenoxyphenyl)(4-((1-(methanesulfonyl)piperidin-4-yl)amino)-1H-pyrrolo[2,3-b]pyridin-3-yl)methanone]",,,242
"N[C@H]1CC[C@H](Nc2ccnc3[nH]cc(C(=O)c4ccc(Oc5ccccc5)cc4Cl)c23)CC1 [Compound I-73, (4-(((1r, 4r)-4-aminocyclohexyl)amino)-1H-pyrrolo[2,3-b]pyridin-3-yl)(2-chloro-4-phenoxyphenyl)methanone]",,,16
"N[C@H]1CC[C@@H](Nc2ccnc3[nH]cc(C(=O)c4ccc(Oc5ccccc5)cc4Cl)c23)CC1 [Compound I-74, (4-(((1s, 4s)-4-aminocyclohexyl)amino)-1H-pyrrolo[2,3-b]pyridin-3-yl)(2-chloro-4-phenoxyphenyl)methanone]",52,65.9,2.8
"CC(=O)N[C@H]1CC[C@@H](Nc2ccnc3[nH]cc(C(=O)c4ccc(Oc5ccccc5)cc4Cl)c23)CC1 [Compound I-87, N-((1s, 4s)-4-((3-(2-chloro-4-phenoxybenzoyl)-1H-pyrrolo[2,3-b]pyridin-4-yl)amino)cyclohexyl)acetamide]",103,114,
CN[C@H]1CC[C@@H](Nc2ccnc3[nH]cc(C(=O)c4ccc(Oc5ccccc5)cc4Cl)c23)CC1 [Compound I-89],68.6,97.7,
